Consider 13 compounds from paper PMC8876603, “New Blood Coagulation Factor XIIa Inhibitors: Molecular Modeling, Synthesis, and Experimental Confirmation” (Molecules, 2022).

For experiment [1], the target named is T1, factor XIIa (Homo sapiens, UniProt P00748). The conditions noted are these: read-out: IC50 factor XIIa (aminotriazole-based inhibitors); cited from earlier work.
In experiment [2] the target is T1, factor XIIa. As to the kind of experiment: Inhibition of factor XIIa: kinetics of hydrolysis of chromogenic substrate S2302. The experiment is classed as biochemical. The settings on record: for IC50: substrate S2302, competitive inhibitor fit; for inhibition at 30 µM: read-out: Inhibition Activity at 30 µM, %; for Selectivity for factor XIIa over coagulation factors Xa and XIa: from IC50 values of Figure 5. Here is the method:
(§1) The inhibition of factor XIIa by the synthesized compounds was studied by measuring the kinetics of hydrolysis of specific substrate S2302 (Chromogenics, Italy) in the presence of these compounds. A buffer containing 140 mM NaCl, 20 mM HEPES and 0.1% PEG 6000 (pH 7.4) was placed in the wells of a 96-well plate, followed by the addition of factor XIIa (final concentration 5 nM), solution of the test compound in DMSO (final concentration 30 μM), and substrate S2302 (Chromogenics, Italy) (final concentration 200 μM). The DMSO content in the well was no more than 2%. The kinetics of the formation of pNa were measured using a THERMOmax Microplate Reader (Molecular Devices Corporation, USA) by the absorption of light with a wavelength of 405 nm. The initial rate of substrate degradation was determined from the initial slope of the pNa formation curve. The rate of substrate degradation by the enzyme in the presence of the inhibitor was expressed as a percentage relative to the rate of substrate degradation in the absence of the inhibitor. The data obtained were processed using the GraphPad Prism and OriginPro 8 software. Ratio of specific substrate cleavage (S2302 for factor XIIa and S2765 for factor Xa) rate in presence of different inhibitor concentrations to these and the cleavage rate without inhibitor were determined to calculate IC50 values. Received curves (see Figures S18–S22) were approximated with the assumption that these were competitive inhibitors.

In experiment [3] the target is factor Xa (Homo sapiens, UniProt P00742). As to the kind of experiment: Inhibition of factor Xa: cleavage rate of specific substrate S2765. The settings on record: >30 = no activity at 30 µM, IC50 not measured. The experiment is classed as biochemical. The protocol: as §1
Sequence of factor Xa (P00742 235-488 limits assumed): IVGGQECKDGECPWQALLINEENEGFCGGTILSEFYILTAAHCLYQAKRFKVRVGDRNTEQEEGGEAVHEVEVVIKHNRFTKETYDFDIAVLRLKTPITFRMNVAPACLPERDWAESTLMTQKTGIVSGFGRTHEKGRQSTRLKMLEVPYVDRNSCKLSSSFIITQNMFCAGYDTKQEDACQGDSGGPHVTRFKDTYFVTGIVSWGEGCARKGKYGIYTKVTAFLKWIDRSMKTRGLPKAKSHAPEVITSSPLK
Sequence of factor Xa (P00742 41-179 partner limits assumed): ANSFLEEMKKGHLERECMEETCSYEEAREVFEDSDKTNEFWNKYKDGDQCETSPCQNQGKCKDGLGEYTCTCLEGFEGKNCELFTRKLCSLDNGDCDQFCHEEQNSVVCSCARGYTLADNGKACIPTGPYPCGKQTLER
(§2) Figure 5 Structures of four identified inhibitors of the coagulation factor XIIa. IC50 values are shown for three coagulation factors: Xa, XIa, and XIIa. […] So, they are marked with ‘>30’ in a column with activity values. TEXT PRINTED IN THE PICTURE: 30901: IC50, μM: XIIa 19.67±1.31; IC50, μM: XIa > 30.00; IC50, μM: Xa 12.40±0.38 | 41453: IC50, μM: XIIa 25.88±1.77; IC50, μM: XIa > 30.00; IC50, μM: Xa > 30.00 | 225006: IC50, μM: XIIa 7.85±0.34; IC50, μM: XIa > 30.00; IC50, μM: Xa > 30.00 | 225738: IC50, μM: XIIa 12.95±0.32; IC50, μM: XIa > 30.00; IC50, μM: Xa > 30.00

Experiment [4] addresses factor XIa (Homo sapiens, UniProt P03951). As to the kind of experiment: Inhibition of factor XIa (off-target selectivity testing). In kind it is biochemical. The conditions noted are these: >30 = no activity at 30 µM, IC50 not measured. Here is the method:
At the first stage, virtual screening based on docking was carried out by the SOL program and the subsequent calculation of the enthalpy of protein–ligand binding by the PM7+COSMO method for the focused library of compounds selected from the database of druglike substances of the Department of Organic Chemistry of the Voronezh State University (VSU). This library consisted of 59 compounds, which were all previously tested against coagulation factors Xa and XIa. Among them, there were a few confirmed inhibitors of these proteins with micromolar activity. The presence of inhibition data for these off-targets allowed us to use selectivity data after the screening phase and better understand the quality of the identified hit series. Screening and testing the selected compounds from the focused library also helped clarify the threshold values of the scoring function of the SOL program, the binding enthalpy and, accordingly, adjust the screening process for further iterations.Virtual screening with the SOL program was carried out for 326 three-dimensional molecules. The original base of 59 ligands was expanded taking into account a few protomers, isomers, and conformers of these molecules. At the first stage, the selection of compounds was carried out based on the SOL scoring function. […] Note that the SOL scoring value for the docking of the original ligand (PDB ID 6B74) was −5.19 kcal/mol. Thus, the selection criterion covered a wider range of scoring values.
as §2

[5] abbreviates: % of enzyme inhibition at 30 µM, averaged over three measurements.

Several values for one entry are separate records, joined by “and”; a condition that tells them apart may be missing. Equal values may be shown once. Read-outs that look alike come from different tables or passages of the source. Bounds are passed on as bounds.

T1 sequence (P00748 373-615 limits assumed, other chains not shown): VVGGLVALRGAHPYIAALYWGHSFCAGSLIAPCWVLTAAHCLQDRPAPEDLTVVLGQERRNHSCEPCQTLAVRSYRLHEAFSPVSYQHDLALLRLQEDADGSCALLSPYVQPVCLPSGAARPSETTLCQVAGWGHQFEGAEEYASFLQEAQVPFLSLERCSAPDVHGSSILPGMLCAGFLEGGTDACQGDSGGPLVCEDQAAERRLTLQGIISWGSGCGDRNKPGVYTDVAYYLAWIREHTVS
Sequence of factor XIa (P03951 388-625 limits assumed): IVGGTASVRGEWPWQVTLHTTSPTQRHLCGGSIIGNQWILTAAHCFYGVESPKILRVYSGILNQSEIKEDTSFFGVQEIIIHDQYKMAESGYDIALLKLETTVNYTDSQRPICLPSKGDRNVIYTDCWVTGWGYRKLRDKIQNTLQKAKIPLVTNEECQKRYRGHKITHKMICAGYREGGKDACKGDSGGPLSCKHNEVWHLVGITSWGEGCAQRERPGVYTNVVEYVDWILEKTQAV
Sequence of factor XIa (P03951 19-387 partner limits assumed): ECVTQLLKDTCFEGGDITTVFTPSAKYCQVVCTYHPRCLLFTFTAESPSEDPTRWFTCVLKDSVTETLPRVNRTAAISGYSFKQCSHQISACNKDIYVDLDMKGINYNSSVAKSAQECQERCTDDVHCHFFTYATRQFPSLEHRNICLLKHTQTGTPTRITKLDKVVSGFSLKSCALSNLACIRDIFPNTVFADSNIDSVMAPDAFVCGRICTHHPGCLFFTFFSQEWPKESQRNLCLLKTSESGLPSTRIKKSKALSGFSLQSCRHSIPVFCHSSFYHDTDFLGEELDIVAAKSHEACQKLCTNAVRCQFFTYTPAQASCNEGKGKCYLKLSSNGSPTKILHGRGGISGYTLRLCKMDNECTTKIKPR

Take `Nc1nc(-c2cnc3ccccc3n2)nn1C(=O)c1cccc2ccccc12` [aminotriazole_39b]: the half-maximal inhibitory concentration (IC50) in experiment [1] is 0.007 µM.
For `COc1cc2c3c(c1)C1(C(=O)N3C(C)(C)CC2C)C(C#N)=C(N)Oc2c1c(=O)oc1ccccc21` (centres unmarked) [compound 30901, 2-amino-8’-methoxy-4’,4’,6’-trimethyl-2’,5-dioxo-5’,6’-dihydro-2’H,4’H,5H-spiro[pyrano[3,2-c]chromene-4,1’-pyrrolo[3,2,1-ij]quinoline]-3-carbonitrile], the IC50 was 19.7 ± 1.31 µM in experiment [2], 12.4 ± 0.38 µM in experiment [3] and greater than 30 µM in experiment [4].
For `CCc1cc2c3c(c1)C1(C(=O)N3C(C)(C)CC2C)C(C#N)=C(N)Oc2c1c(=O)[nH]c1ccccc21` (centres unmarked) [compound 38292, 2-Amino-8’-ethyl-4’,4’,6’-trimethyl-2’,5-dioxo-5,5’,6,6’-tetrahydro-4’H-spiro[pyrano[3,2-c]quinoline-4,1’-pyrrolo[3,2,1-ij]quinoline]-3-carbonitrile], the inhibition at 30 µM in experiment [2] (setting [5]) was found to be 10%.
On the same count and under the same terms, then `COc1ccc(C2C(C#N)=C(N)Oc3c2c(=O)[nH]c2ccccc32)cc1OC` (centres unmarked) [compound 38756, 2-Amino-4-(3,4-dimethoxyphenyl)-5-oxo-5,6-dihydro-4H-pyrano[3,2-c]quinoline-3-carbonitrile], with 15%.
Regarding `CC1(C)CC2(CCCCC2)N2C(=O)C3(NCCc4c3[nH]c3ccccc43)c3cccc1c32` (stereo not drawn) [compound 41453, 6’,6’-Dimethyl-2,3,4,5’,6’,9-hexahydrodispiro[β-carboline-1,1’-pyrrolo[3,2,1-ij]quinoline-4’,1’’-cyclohexan]-2’-one], the “Selectivity for factor XIIa over coagulation factors Xa and XIa” value (from here on “Selectivity for factor XIIa”) in experiment [2] was “questionable”. Besides, the IC50 in experiment [2] was ~26 µM and 25.9 µM; in experiment [3], greater than 30 µM; in experiment [4] it was greater than 30 µM.
For the compound `CC1CCc2nc3oc(-c4ccccc4)cc3c(N)c2C1` (centres unmarked) [compound 224530, 6-Methyl-2-phenyl-5,6,7,8-tetrahydrofuro[2,3-b]quinolin-4-amine], in experiment [2] (setting [5]), the inhibition at 30 µM worked out at 0%.
`Nc1c2c(nc3oc(-c4ccccc4Cl)cc13)CCCC2=O` [compound 224533, 4-Amino-2-(2-chlorophenyl)-7,8-dihydrofuro[2,3-b]quinolin-5(6H)-one]: the inhibition at 30 µM in experiment [2] is 2%.
With `COc1ccc(C(=O)c2cc3cc4c(cc3oc2=O)N(C)C(C)(C)CC4C)cc1` (centres unmarked) [compound 224870, 3-(4-Methoxybenzoyl)-6,8,8,9-tetramethyl-6,7,8,9-tetrahydro-2H-pyrano[3,2-g]quinolin-2-one], the inhibition at 30 µM in experiment [2] (setting [5]) was 0%.
Consider `CC1CC(C)(C)N(C)c2cc3oc(=O)c(-c4cc(=O)[nH]c(N5CCOCC5)n4)cc3cc21` (centres unmarked) [compound 225006, 6,8,8,9-Tetramethyl-3-(2-morpholin-4-yl-6-oxo-1,6-dihydropyrimidin-4-yl)-6,7,8,9-tetrahydro-2H-pyrano[3,2-g]quinolin-2-one], for which the inhibition at 30 µM in experiment [2] (setting [5]) is greater than 50%. Also, in experiment [2], the “Selectivity for factor XIIa” value is given as “selectively inhibit”. The half-maximal inhibitory concentration (IC50) in experiment [2] is 7.9 µM and 7.85 µM; in experiment [3] it was greater than 30 µM; in experiment [4] it was greater than 30 µM.
On to `COc1cc2c3c(c1)C(=NNC(=N)N)C(=O)N3C(C)(C)C=C2C` [compound 225635, 2-(8-Methoxy-4,4,6-trimethyl-2-oxo-4H-pyrrolo[3,2,1-ij]quinolin-1(2H)-ylidene)hydrazinecarboximidamide], for which the inhibition at 30 µM in experiment [2] (setting [5]) came to 0%.
Same read-out and setting: then `COc1cc2c3c(c1)C(=NNC(=N)N)C(=O)N3C(C)(C)C=C2CN1CCN(c2ccc(F)cc2)CC1` [compound 225638, 2-[6-{[4-(4-Fluorophenyl)piperazin-1-yl]methyl}-8-methoxy-4,4-dimethyl-2-oxo-4H-pyrrolo[3,2,1-ij]quinolin-1(2H)-ylidene]hydrazinecarboximidamide], with 27%.
Consider `COC(=O)c1c(C)[nH]c(-c2ccccc2)c1C1C(=O)N2c3c(cc(OC)cc31)C(C)=CC2(C)C` (centres unmarked) [compound 225738, methyl 4-(8-methoxy-4,4,6-trimethyl-2-oxo-1,2-dihydro-4H-pyrrolo[3,2,1-ij]quinolin-1-yl)-2-methyl-5-phenyl-1H-pyrrole-3-carboxylate], for which the inhibition at 30 µM in experiment [2] (setting [5]) is greater than 50%. In addition, the “Selectivity for factor XIIa” value in experiment [2] is recorded as “selectively inhibit”. Moreover, the IC50 in experiment [2] was 13 ± 0.32 µM; in experiment [3], greater than 30 µM; in experiment [4] it was greater than 30 µM.
Regarding `COc1cc2c3c(c1)/C(=N/OC(=O)c1ccccc1)C(=O)N3C(C)(C)C=C2C` [compound 225746, 8-Methoxy-4,4,6-trimethyl-4H-pyrrolo[3,2,1-ij]quinoline-1,2-dione1-(O-benzoyloxime)], the inhibition at 30 µM in experiment [2] (setting [5]) stood at 0%.

A word on the IC50: it is the concentration that inhibits the measured activity by half. The inhibition is the percentage by which the read-out fell short of the control.
